Source: ChEMBL document CHEMBL1201862, “PubChem BioAssay data set” (2004)
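Compound exposure: 48 hours, 5 concentrations, 96-well plates. GI50: concentration for 50% inhibition of growth.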 The source made the active and inactive calls. Rule as the data show it: active = GI50 up to about 1.1 µM and inactive = higher.

Legend:
Test in all cases: growth of human tumour cells (NCI), 48 h
[1] = tested on: IGROV-1
[2] = tested on: OVCAR-3
[3] = tested on: CCRF-CEM
[4] = tested on: MDA-MB-231
[5] = tested on: NCI-H226
[6] = tested on: NCI-H460
[7] = tested on: 786-0
[8] = tested on: OVCAR-5
[9] = tested on: EKVX
[10] = tested on: A549
[11] = tested on: RPMI-8226
[12] = tested on: PC-3
[13] = tested on: U-251
[14] = tested on: SK-MEL-5
[15] = tested on: SNB-19
[16] = tested on: COLO 205
[17] = tested on: HCT-15
[18] = tested on: CAKI-1
[19] = tested on: LOX IMVI
[20] = tested on: Hs-578T
[21] = tested on: M14
[22] = tested on: Malme-3M
[23] = tested on: SF-539
[24] = tested on: HOP-62
[25] = tested on: MDA-N
[26] = tested on: SW-620
[27] = tested on: HCC 2998
[28] = tested on: RXF 393
[29] = tested on: MCF7
[30] = tested on: SK-OV-3
[31] = tested on: UO-31
[32] = tested on: A498
[33] = tested on: MDA-MB-435
[34] = tested on: OVCAR-8
[35] = tested on: MOLT-4
[36] = tested on: SN12C
[37] = tested on: K562
[38] = tested on: HCT-116
[39] = tested on: OVCAR-4
[40] = tested on: SR
[41] = tested on: NCI-H23
[42] = tested on: SNB-75
[43] = tested on: SF-268
[44] = tested on: SK-MEL-28
[45] = tested on: UACC-62
[46] = tested on: SK-MEL-2
[47] = tested on: DU-145
[48] = tested on: NCI/ADR-RES
[49] = tested on: ACHN
[50] = tested on: SF-295
[51] = tested on: HT-29
[52] = tested on: NCI-H522
[53] = tested on: T47D
[54] = tested on: BT-549
[55] = tested on: UACC-257
[56] = tested on: HL-60
[57] = tested on: KM12
[58] = tested on: TK-10
[59] = tested on: HOP-92

For `CC(=O)CN/C(C)=N/Nc1ccc([N+](=O)[O-])cc1[N+](=O)[O-]`, the GI50 [1] was > 100 µM (inactive), the GI50 [2] was > 100 µM (inactive) and the GI50 [3] was > 100 µM (inactive). For the same compound, the GI50 [4] was > 100 µM (inactive), the GI50 [5] was > 100 µM (inactive) and the GI50 [6] was > 100 µM (inactive). For the same compound, the GI50 [7] was > 100 µM (inactive), the GI50 [8] was > 100 µM (inactive) and the GI50 [9] was 52.2 µM (inactive). For the same compound, the GI50 [10] was > 100 µM (inactive), the GI50 [11] was > 100 µM (inactive) and the GI50 [12] was > 100 µM (inactive). The GI50 [13] was > 100 µM (inactive), the GI50 [14] was > 100 µM (inactive) and the GI50 [15] was > 100 µM (inactive). For the same compound, the GI50 [16] was > 100 µM (inactive), the GI50 [17] was over 100 µM and the GI50 [18] was 15.3 µM (inactive). The GI50 [19] was > 100 µM (inactive), the GI50 [20] was > 100 µM (inactive) and the GI50 [21] was > 100 µM (inactive). The GI50 [22] was 70.5 µM (inactive), the GI50 [23] was > 100 µM (inactive) and the GI50 [24] was > 100 µM (inactive). For the same compound, the GI50 [25] was > 100 µM (inactive), the GI50 [26] was > 100 µM (inactive) and the GI50 [27] was > 100 µM (inactive). For the same compound, the GI50 [28] was > 100 µM (inactive), the GI50 [29] was > 100 µM (inactive) and the GI50 [30] was > 100 µM (inactive). The GI50 [31] was > 100 µM (inactive), the GI50 [32] was 78.3 µM (inactive) and the GI50 [33] was > 100 µM (inactive). For the same compound, the GI50 [34] was > 100 µM (inactive), the GI50 [35] was > 100 µM (inactive) and the GI50 [36] was > 100 µM (inactive). For the same compound, the GI50 [37] was 5.2 µM (inactive), the GI50 [38] was > 100 µM (inactive) and the GI50 [39] was > 100 µM (inactive). The GI50 [40] was > 100 µM (inactive), the GI50 [41] was > 100 µM (inactive) and the GI50 [42] was > 100 µM (inactive). The GI50 [43] was > 100 µM (inactive), the GI50 [44] was > 100 µM (inactive) and the GI50 [45] was 80.9 µM (inactive). For the same compound, the GI50 [46] was > 100 µM (inactive), the GI50 [47] was > 100 µM (inactive) and the GI50 [48] was > 100 µM (inactive). For the same compound, the GI50 [49] was 94.4 µM (inactive), the GI50 [50] was > 100 µM (inactive) and the GI50 [51] was > 100 µM (inactive). For the same compound, the GI50 [52] was > 100 µM (inactive) and the GI50 [53] was > 100 µM (inactive).
With `O=C1Cc2c([nH]c3ccc([N+](=O)[O-])cc23)-c2ccccc2N1` [ALSTERPAULLONE] the GI50 [1] was 0.53 µM (active), the GI50 [2] was 0.158 µM (active) and the GI50 [54] was 1.08 µM (active). For the same compound, the GI50 [3] was 0.118 µM (active), the GI50 [4] was 1.16 µM (inactive) and the GI50 [5] was 0.275 µM (active). For the same compound, the GI50 [6] was 0.396 µM (active), the GI50 [7] was 0.406 µM (active) and the GI50 [8] was 0.22 µM (active). The GI50 [9] was 0.652 µM (active), the GI50 [10] was 0.211 µM (active) and the GI50 [11] was 0.438 µM (active). For the same compound, the GI50 [12] was 0.836 µM (active), the GI50 [13] was 0.471 µM (active) and the GI50 [14] was 0.174 µM (active). The GI50 [15] was 0.478 µM (active), the GI50 [55] was 1.11 µM (active) and the GI50 [16] was 0.235 µM (active). For the same compound, the GI50 [17] was 0.237 µM, the GI50 [18] was 0.332 µM (active) and the GI50 [56] was 0.261 µM (active). For the same compound, the GI50 [19] was 0.181 µM (active), the GI50 [57] was 0.165 µM (active) and the GI50 [21] was 0.453 µM (active). For the same compound, the GI50 [22] was 9.08 µM (inactive), the GI50 [23] was 0.397 µM (active) and the GI50 [24] was 0.279 µM (active). For the same compound, the GI50 [25] was 0.367 µM (active), the GI50 [26] was 0.348 µM (active) and the GI50 [27] was 0.914 µM (active). The GI50 [58] was 0.757 µM (active), the GI50 [28] was 0.284 µM (active) and the GI50 [29] was 0.508 µM (active). For the same compound, the GI50 [30] was 2.3 µM (inactive), the GI50 [31] was 0.109 µM (active) and the GI50 [32] was 0.822 µM (active). For the same compound, the GI50 [33] was 0.499 µM (active), the GI50 [34] was 0.446 µM (active) and the GI50 [35] was 0.312 µM (active). For the same compound, the GI50 [59] was 7.93 µM (inactive), the GI50 [36] was 0.391 µM (active) and the GI50 [37] was 0.774 µM (active). The GI50 [38] was 0.116 µM (active), the GI50 [39] was 0.498 µM (active) and the GI50 [41] was 0.557 µM (active). For the same compound, the GI50 [42] was 0.804 µM (active), the GI50 [43] was 0.471 µM (active) and the GI50 [44] was 0.345 µM (active). The GI50 [45] was 0.94 µM (active), the GI50 [46] was 0.713 µM (active) and the GI50 [47] was 0.209 µM (active). The GI50 [48] was 0.61 µM (active), the GI50 [49] was 0.288 µM (active) and the GI50 [50] was 0.92 µM (active). The GI50 [51] was 0.389 µM (active), the GI50 [52] was 1.22 µM (inactive) and the GI50 [53] was 2.88 µM (inactive).
